The values below come from patent US8940736B2, “Imidazotriazinecarbonitriles useful as kinase inhibitors” (Bristol-Myers Squibb Company, priority 2012, dated 2015).

The target in assay [1] is recombinant CK2A1 (Homo sapiens (Human), UniProt P68400). In words: CK2 kinase assay (CK2A1). To be noted: Table B, comparison compound of WO 2007/038314 / US 2008/0045536. Type of assay: biochemical.
Procedure: (§1) For example, in vitro protein kinase assays may be conducted with a relevant purified protein kinase and an appropriate synthetic substrate to determine the inhibitory activity of the compounds. […] Reaction mixtures were incubated at 30° C. for 1 hour, and reaction products were captured by binding to phosphocellulose (P81) filter plates. Incorporation of radioactive phosphate into the peptide substrate was determined by liquid scintillation counting.
(§2) The inhibitory activity of the instant compounds may also be measured by recombinant CK2 holoenzyme kinase assays. The assays were performed in U-bottom 384-well plates. […] The reaction was initiated by the combination of bacterially expressed, CK2α/β or CK2α′/β holoenzyme with substrates and test compounds. […] Compounds were dissolved at 10 mM in dimethylsulfoxide (DMSO) and evaluated at eleven concentrations. IC50 values were derived by non-linear regression analysis.
Assay [2] has as its target recombinant CK2A2 (Homo sapiens (Human), UniProt P19784). In words: CK2 kinase assay (CK2A2). The class given is biochemical. To be noted: Table B, comparison compound of WO 2007/038314 / US 2008/0045536.
Procedure: as §1, §2

The IC50 is the concentration needed to halve the response being measured.

Chain of recombinant CK2A2 (P19784 whole entry): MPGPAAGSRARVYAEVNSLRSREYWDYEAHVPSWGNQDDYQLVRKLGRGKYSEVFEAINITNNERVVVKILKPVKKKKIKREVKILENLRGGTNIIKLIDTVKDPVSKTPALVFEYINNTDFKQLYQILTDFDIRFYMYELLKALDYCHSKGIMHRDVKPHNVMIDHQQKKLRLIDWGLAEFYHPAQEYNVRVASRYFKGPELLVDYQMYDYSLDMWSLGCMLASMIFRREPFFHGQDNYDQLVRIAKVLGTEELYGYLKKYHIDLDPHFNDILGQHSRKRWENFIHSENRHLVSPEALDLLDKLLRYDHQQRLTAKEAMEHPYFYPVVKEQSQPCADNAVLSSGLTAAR
Chain of recombinant CK2A1 (P68400 whole entry): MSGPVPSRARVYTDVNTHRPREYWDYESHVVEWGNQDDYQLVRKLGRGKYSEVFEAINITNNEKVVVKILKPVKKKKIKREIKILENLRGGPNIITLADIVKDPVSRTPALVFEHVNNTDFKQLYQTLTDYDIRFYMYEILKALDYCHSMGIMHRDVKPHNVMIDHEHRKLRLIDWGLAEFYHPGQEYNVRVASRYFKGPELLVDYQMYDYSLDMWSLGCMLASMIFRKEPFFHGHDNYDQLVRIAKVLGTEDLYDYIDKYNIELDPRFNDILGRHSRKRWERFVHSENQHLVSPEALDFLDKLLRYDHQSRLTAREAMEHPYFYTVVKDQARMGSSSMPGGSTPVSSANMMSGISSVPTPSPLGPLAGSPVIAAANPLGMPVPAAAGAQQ

Take `CCOc1ccc(Nc2nc(N[C@H]3CC[C@@H](N)CC3)nn3ccnc23)cc1` [XIII]: the IC50 in assay [1] stood at 1800 nM; in assay [2], 331 nM.
